Results from patent US20260133203A1, “DETECTION OF FUMARATE-DERIVED MODIFICATION IN A TEST SAMPLE” (UNIVERSITY OF SOUTH CAROLINA, priority 2017, published 2026).
Counter-ions that a name gives are not always drawn.

System: primary rat astrocytes
Assay: LC-MS/MS identification of succinated proteins in primary rat astrocytes
Assay type: cell-based
Details: 24 hours treatment with up to 100 μM DMF
Experimental: Primary astrocytes were isolated and cultured from neonatal P1-P2 Sprague-Dawley rats. Animals were decapitated following which cortices, brainstem, and hippocampi were aseptically dissected in petri dishes filled with ice-cold Hanks' Balanced Salt Solution (Corning® HBSS; Sigma, St. Louis, MO), HEPES (10 mM; Sigma), and gentamicin sulfate (5 μg/mL; Life Technologies, Carlsbad, CA). The dissected tissue was cut into pieces and dissociated by trypsin treatment (10 μl/mL; Life Technologies, Carlsbad, CA), followed by trituration with sterile glass pipettes. Cells were plated in 24-well plates pre-coated with poly-l-lysine (50 μg/mL; Sigma). Cultures were maintained in DMEM/F12 (Life Technologies) medium supplemented with 10% fetal bovine serum (FBS) and stored in an incubator at 37° C. ([…]). […] After gel extraction, the peptides were re-suspended in 1% acetic acid and analyzed on a DionexTM […] system (Thermo ScientificTM, Rockford, IL) coupled to an Orbitrap Velos ProTM mass spectrometer (Thermo ScientificTM, Rockford, IL). […] The data-dependent acquisition (DDA) data were analyzed using Proteome DiscovererTM 1.4 software with SEQUEST search engine against the uniprot_ref_mouse database (2014-10-03 version, 52,474 proteins) or uniprot_ref_rat database (2011-5-11 version, 39765 proteins) with Xcorr>1 validation (+2) and an allowance for 2 missed cleavages. […]

COC(=O)/C=C/C(=O)OC [DMF, dimethyl fumarate]
number of succinated protein subunits detected: 11
